Test results from US12319672B2, “Alpha-D-galactopyranoside derivatives” (Idorsia Pharmaceuticals Ltd, priority 2019, dated 2025).

Key:
human Gal-3 (hGal-3) = human Gal-3 (hGal-3) (Homo sapiens (Human), UniProt P17931); experiment: Competitive binding assay: binding of biotinylated hGal-3 to microplate-adsorbed asialofetuin (ASF); settings: Activity on hGal-3; mean values of several measurements
Outline: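 Compounds in DMSO dilution series competed with 300-1000 ng/mL biotinylated hGal-3 for asialofetuin adsorbed on the plate (3 h, 4° C). Streptavidin-peroxidase at 80 ng/mL (1 h, 4° C) with ABTS gave a spectrophotometric read-out, and IC50 was reported as the mean of repeat runs.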

human Gal-1 (hGal-1) = experiment: Competitive binding assay: binding of biotinylated hGal-1 to microplate-adsorbed asialofetuin (ASF); settings: Activities on hGal-1; mean values of several measurements
Chain of human Gal-1 (hGal-1) (P09382 2-135 limits assumed): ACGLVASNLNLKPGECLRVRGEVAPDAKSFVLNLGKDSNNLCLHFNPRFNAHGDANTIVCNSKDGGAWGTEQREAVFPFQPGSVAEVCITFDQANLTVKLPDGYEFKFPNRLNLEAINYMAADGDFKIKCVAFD
Outline: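 For hGal-1, a variant with all six cysteines replaced by serines is preferred. Either galectin, biotinylated at 300-1000 ng/mL, competes with compound for microplate-bound ASF over 3 h at 4° C; peroxidase/ABTS detection gives IC50, averaged.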

Chain of human Gal-3 (hGal-3) (P17931 whole entry): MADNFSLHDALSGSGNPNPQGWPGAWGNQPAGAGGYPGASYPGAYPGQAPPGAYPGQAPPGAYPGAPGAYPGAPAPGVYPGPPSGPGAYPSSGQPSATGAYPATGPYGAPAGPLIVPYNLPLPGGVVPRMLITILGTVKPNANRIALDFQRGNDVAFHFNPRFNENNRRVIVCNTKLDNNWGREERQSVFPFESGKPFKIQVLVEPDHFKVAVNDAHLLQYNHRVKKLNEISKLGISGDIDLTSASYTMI

IC50 (human Gal-3 (hGal-3)) [nM]	IC50 (human Gal-1 (hGal-1)) [nM]	Structure (SMILES)
490	13600	OC[C@H]1O[C@H](Cc2cc(C3(O)CCCC3)on2)[C@H](O)[C@@H](n2cc(-c3cc(F)c(F)c(F)c3)nn2)[C@H]1O [Ex 1.58]
400	6310	OC[C@H]1O[C@H](Cc2cc(C3(O)COC3)on2)[C@H](O)[C@@H](n2cc(-c3cc(F)c(F)c(F)c3)nn2)[C@H]1O [Ex 1.59]
290	6970	OC[C@H]1O[C@H](Cc2cc(C3CCOCC3)on2)[C@H](O)[C@@H](n2cc(-c3cc(F)c(F)c(F)c3)nn2)[C@H]1O [Ex 1.60]
36	620	CC(C)(C)OC(=O)N1CCC(O)(c2cc(C[C@H]3O[C@H](CO)[C@H](O)[C@H](n4cc(-c5cc(F)c(F)c(F)c5)nn4)[C@H]3O)no2)CC1 [Ex 1.61]
76	450	CO[C@@H]1[C@@H](n2cc(-c3cc(F)c(F)c(F)c3)nn2)[C@@H](O)[C@@H](CO)O[C@@H]1Cc1cc(C2CCN(C(=O)OC(C)(C)C)CC2)no1 [Ex 1.62]
340	2540	CO[C@@H]1[C@@H](n2cc(-c3cc(F)c(F)c(F)c3)nn2)[C@@H](O)[C@@H](CO)O[C@@H]1Cc1cc(C(C)(C)C)on1 [Ex 1.63]
270	8510	CO[C@@H]1[C@@H](n2cc(-c3cc(F)c(F)c(F)c3)nn2)[C@@H](O)[C@@H](CO)O[C@@H]1Cc1cc(C2CCOCC2)on1 [Ex 1.64]
560	14100	CO[C@@H]1[C@@H](n2cc(-c3cc(F)c(F)c(F)c3)nn2)[C@@H](O)[C@@H](CO)O[C@@H]1Cc1cc(C2CCCCC2)on1 [Ex 1.65]
1080	3760	CO[C@@H]1[C@@H](n2cc(-c3cc(F)c(F)c(F)c3)nn2)[C@@H](O)[C@@H](CO)O[C@@H]1CC1=NOC(C(C)(C)C)C1 (stereo partly shown) [Ex 1.66]
430	3080	CO[C@@H]1[C@@H](n2cc(-c3cc(F)c(F)c(F)c3)nn2)[C@@H](O)[C@@H](CO)O[C@@H]1CC1=NOC(C2CCN(C(=O)OC(C)(C)C)CC2)C1 (stereo partly shown) [Ex 1.67]
450	6730	CO[C@@H]1[C@@H](n2cc(-c3cc(F)c(F)c(F)c3)nn2)[C@@H](O)[C@@H](CO)O[C@@H]1Cc1cc(C2(O)COC2)on1 [Ex 1.69]
1980	12600	CO[C@@H]1[C@@H](n2cc(-c3cc(F)c(F)c(F)c3)nn2)[C@@H](O)[C@@H](CO)O[C@@H]1Cc1cc(C2CCN(C(=O)OC(C)(C)C)C2)on1 (stereo partly shown) [Ex 1.70]
230	5260	CO[C@@H]1[C@@H](n2cc(-c3cc(F)c(F)c(F)c3)nn2)[C@@H](O)[C@@H](CO)O[C@@H]1Cc1cc(C2CCCC2)on1 [Ex 1.71]
360	5110	CO[C@@H]1[C@@H](n2cc(-c3cc(F)c(F)c(F)c3)nn2)[C@@H](O)[C@@H](CO)O[C@@H]1Cc1cc(C2(O)CCCC2)on1 [Ex 1.72]
190	3120	CO[C@@H]1[C@@H](n2cc(-c3cc(F)c(F)c(F)c3)nn2)[C@@H](O)[C@@H](CO)O[C@@H]1Cc1cc(C2(O)CCCCC2)on1 [Ex 1.73]
180	3160	CO[C@@H]1[C@@H](n2cc(-c3cc(F)c(F)c(F)c3)nn2)[C@@H](O)[C@@H](CO)O[C@@H]1Cc1cc(C2CCC2)on1 [Ex 1.74]
400	3550	CO[C@@H]1[C@@H](n2cc(-c3cc(F)c(F)c(F)c3)nn2)[C@@H](O)[C@@H](CO)O[C@@H]1Cc1cc(C2(O)CCOCC2)on1 [Ex 1.75]
4620	13300	CO[C@@H]1[C@@H](n2cc(-c3cc(F)c(F)c(F)c3)nn2)[C@@H](O)[C@@H](CO)O[C@@H]1Cc1cc(C2(O)CCCN(C(=O)OC(C)(C)C)CC2)on1 (stereo partly shown) [Ex 1.76]
710	6820	OC[C@H]1O[C@H](Cc2cc(C3CCC4(CC3)OCCO4)on2)[C@H](O)[C@@H](n2cc(-c3cc(F)c(F)c(F)c3)nn2)[C@H]1O [Ex 1.77]
1000	9640	CCOC(=O)C1CCC(O)(c2cc(C[C@H]3O[C@H](CO)[C@H](O)[C@H](n4cc(-c5cc(F)c(F)c(F)c5)nn4)[C@H]3O)no2)CC1 (stereo partly shown) [Ex 1.78]

The next lines start with the compound.

Structure (SMILES)	IC50 (human Gal-3 (hGal-3)) [nM]	IC50 (human Gal-1 (hGal-1)) [nM]
O=c1[nH]c2ccc(C3=NO[C@@H](C[C@H]4O[C@H](CO)[C@H](O)[C@H](n5cc(-c6cc(F)c(F)c(F)c6)nn5)[C@H]4O)C3)cc2o1 [Ex 1.31]	1130	13500
O=c1[nH]c2ccc(C3=NO[C@@H](C[C@H]4O[C@H](CO)[C@H](O)[C@H](n5cc(-c6cc(F)c(F)c(F)c6)nn5)[C@H]4O)C3)cc2o1 [Ex 1.32]	53	1150
OC[C@H]1O[C@H](CC2CC(c3ccc4cn[nH]c4c3)=NO2)[C@H](O)[C@@H](n2cc(-c3cc(F)c(F)c(F)c3)nn2)[C@H]1O (stereo partly shown) [Ex 1.33]	800	7940
OC[C@H]1O[C@H](CC2CC(c3ccc4[nH]ncc4c3)=NO2)[C@H](O)[C@@H](n2cc(-c3cc(F)c(F)c(F)c3)nn2)[C@H]1O (stereo partly shown) [Ex 1.34]	880	10600
OC[C@H]1O[C@H](CC2=NOC(C3CCCCC3)C2)[C@H](O)[C@@H](n2cc(-c3cc(F)c(F)c(F)c3)nn2)[C@H]1O (stereo partly shown) [Ex 1.35]	1000	5580
OC[C@H]1O[C@H](CC2=NOC(Cc3ccccc3)C2)[C@H](O)[C@@H](n2cc(-c3cc(F)c(F)c(F)c3)nn2)[C@H]1O (stereo partly shown) [Ex 1.36]	2540	10900
Cc1ncsc1C1CC(C[C@H]2O[C@H](CO)[C@H](O)[C@H](n3cc(-c4cc(F)c(F)c(F)c4)nn3)[C@H]2O)=NO1 (stereo partly shown) [Ex 1.37]	440	7700
OCCC1CC(C[C@H]2O[C@H](CO)[C@H](O)[C@H](n3cc(-c4cc(F)c(F)c(F)c4)nn3)[C@H]2O)=NO1 (stereo partly shown) [Ex 1.38]	1420	15900
CC(C)(O)C1CC(C[C@H]2O[C@H](CO)[C@H](O)[C@H](n3cc(-c4cc(F)c(F)c(F)c4)nn3)[C@H]2O)=NO1 (stereo partly shown) [Ex 1.39]	710	9940
CC(C)(C)OC(=O)N1CCC(c2cc(C[C@H]3O[C@H](CO)[C@H](O)[C@H](n4cc(-c5cc(F)c(F)c(F)c5)nn4)[C@H]3O)no2)CC1 [Ex 1.40]	43	740
CC(C)(C)OC(=O)N1CCC(C2CC(C[C@H]3O[C@H](CO)[C@H](O)[C@H](n4cc(-c5cc(F)c(F)c(F)c5)nn4)[C@H]3O)=NO2)CC1 (stereo partly shown) [Ex 1.41]	450	6290
CC(C)(O)CC1CC(C[C@H]2O[C@H](CO)[C@H](O)[C@H](n3cc(-c4cc(F)c(F)c(F)c4)nn3)[C@H]2O)=NO1 (stereo partly shown) [Ex 1.42]	1060	3610
OCc1cc(C[C@H]2O[C@H](CO)[C@H](O)[C@H](n3cc(-c4cc(F)c(F)c(F)c4)nn3)[C@H]2O)no1 [Ex 1.43]	1900	15800
CC(=O)O[C@@H]1[C@@H](n2cc(-c3cc(F)c(F)c(F)c3)nn2)[C@@H](O)[C@@H](CO)O[C@@H]1CC1CC(C2CCN(C(=O)OC(C)(C)C)CC2)=NO1 (stereo partly shown) [Ex 1.44]	65	1710
CC(C)(C)OC(=O)N1CCC(C2=NOC(C[C@H]3O[C@H](CO)[C@H](O)[C@H](n4cc(-c5cc(F)c(F)c(F)c5)nn4)[C@H]3O)C2)CC1 (stereo partly shown) [Ex 1.45]	110	1020
CO[C@@H]1[C@@H](n2cc(-c3cc(F)c(F)c(F)c3)nn2)[C@@H](O)[C@@H](CO)O[C@@H]1CC1CC(C2CCN(C(=O)OC(C)(C)C)CC2)=NO1 (stereo partly shown) [Ex 1.46]	290	1000
CO[C@@H]1[C@@H](n2cc(-c3cc(F)c(F)c(F)c3)nn2)[C@@H](O)[C@@H](CO)O[C@@H]1C[C@H]1CC(C2CCN(C(=O)OC(C)(C)C)CC2)=NO1 [Ex 1.47]	660	6540
CO[C@@H]1[C@@H](n2cc(-c3cc(F)c(F)c(F)c3)nn2)[C@@H](O)[C@@H](CO)O[C@@H]1C[C@@H]1CC(C2CCN(C(=O)OC(C)(C)C)CC2)=NO1 [Ex 1.48]	89	560
CC(=O)O[C@@H]1[C@@H](n2cc(-c3cc(F)c(F)c(F)c3)nn2)[C@@H](O)[C@@H](CO)O[C@@H]1Cc1cc(C2CCN(C(=O)OC(C)(C)C)CC2)on1 [Ex 1.49]	78	2450
CO[C@@H]1[C@@H](n2cc(-c3cc(F)c(F)c(F)c3)nn2)[C@@H](O)[C@@H](CO)O[C@@H]1Cc1cc(C2CCN(C(=O)OC(C)(C)C)CC2)on1 [Ex 1.50]	63	570
CC(C)(C)c1cc(C[C@H]2O[C@H](CO)[C@H](O)[C@H](n3cc(-c4cc(F)c(F)c(F)c4)nn3)[C@H]2O)no1 [Ex 1.51]	150	2500
OC[C@H]1O[C@H](Cc2cc(C3CC3)on2)[C@H](O)[C@@H](n2cc(-c3cc(F)c(F)c(F)c3)nn2)[C@H]1O [Ex 1.52]	500	7980
CC(C)(C)OC(=O)N1CC(c2cc(C[C@H]3O[C@H](CO)[C@H](O)[C@H](n4cc(-c5cc(F)c(F)c(F)c5)nn4)[C@H]3O)no2)C1 [Ex 1.53]	350	2870
CC(C)(C)OC(=O)N1CCCC(c2cc(C[C@H]3O[C@H](CO)[C@H](O)[C@H](n4cc(-c5cc(F)c(F)c(F)c5)nn4)[C@H]3O)no2)C1 (stereo partly shown) [Ex 1.54]	290	6480
CC(C)(C)OC(=O)N1CCC(c2cc(C[C@H]3O[C@H](CO)[C@H](O)[C@H](n4cc(-c5cc(F)c(F)c(F)c5)nn4)[C@H]3O)no2)C1 (stereo partly shown) [Ex 1.55]	660	41900
OC[C@H]1O[C@H](Cc2cc(C3CCCCC3)on2)[C@H](O)[C@@H](n2cc(-c3cc(F)c(F)c(F)c3)nn2)[C@H]1O [Ex 1.56]	340	15200
OC[C@H]1O[C@H](Cc2cc(C3CCCC3)on2)[C@H](O)[C@@H](n2cc(-c3cc(F)c(F)c(F)c3)nn2)[C@H]1O [Ex 1.57]	400	12500
